# Measured values reported in patent publication US20230127498A1, “TREATMENT OF RESPIRATORY DISORDERS” (Terns, Inc., priority 2020, published 2023).
# Structures can show the parent of a compound that is named as a salt. Where two headings read alike, the source gives them in different places.
# What was measured:
# [1] = Rat model of NASH; settings: in vivo
# [2] = system: methylamine (MMA); test: Single-ascending dose clinical trial: plasma methylamine (MMA) levels; format: in vivo, human
# Protocol: (§1) Safety was assessed for 7 (±3) days after dosing.
# [3] = system: Influenza A virus, WSN/33 strain of H1N1; settings: for Median survival time / Survival proportion / Prolonged survival time*: Formula 5 20 mg/kg QD, oseltamivir 5 mg/kg BID; for Prolonged survival time*: compared with vehicle group
# [4] = target: T1, SSAO (Homo sapiens, UniProt Q16853); test: Single-ascending dose clinical trial: plasma SSAO activity (H2O2 generation); format: in vivo
# T1 construct: from tissue; host or cells: human plasma (healthy volunteers)
# T1 sequence (Q16853 27-763 limits assumed): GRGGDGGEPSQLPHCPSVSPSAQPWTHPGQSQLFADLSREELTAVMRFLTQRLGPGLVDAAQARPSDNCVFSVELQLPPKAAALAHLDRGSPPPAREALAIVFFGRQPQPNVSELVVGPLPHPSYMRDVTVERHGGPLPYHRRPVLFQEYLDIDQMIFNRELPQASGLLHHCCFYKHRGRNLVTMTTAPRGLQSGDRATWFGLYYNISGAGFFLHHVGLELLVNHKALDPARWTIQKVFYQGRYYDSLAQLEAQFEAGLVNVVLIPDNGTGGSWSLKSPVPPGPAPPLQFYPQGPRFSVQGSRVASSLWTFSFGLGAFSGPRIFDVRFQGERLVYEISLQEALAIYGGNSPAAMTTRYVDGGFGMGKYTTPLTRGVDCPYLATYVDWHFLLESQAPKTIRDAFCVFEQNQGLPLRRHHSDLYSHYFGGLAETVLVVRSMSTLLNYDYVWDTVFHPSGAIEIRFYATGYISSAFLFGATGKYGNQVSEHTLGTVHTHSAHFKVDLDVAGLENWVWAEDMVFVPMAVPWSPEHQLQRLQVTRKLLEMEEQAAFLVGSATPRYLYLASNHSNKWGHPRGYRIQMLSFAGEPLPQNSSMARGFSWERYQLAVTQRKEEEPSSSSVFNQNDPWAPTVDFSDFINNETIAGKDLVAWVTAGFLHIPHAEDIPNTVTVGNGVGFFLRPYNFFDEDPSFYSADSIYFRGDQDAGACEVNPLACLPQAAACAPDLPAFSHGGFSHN
# Protocol: as §1
# (§2) Plasma PK parameters were determined by non-compartmental analysis.
# SSAO-specific amine oxidase levels in plasma were determined using a kinetic-based assay essentially as described previously (Schilter et al). Endogenous monoamine oxidases A and B were inhibited by adding pargyline to plasma samples prior to measuring H2O2 generation levels in placebo and active recipients.
# [5] = mouse, in vivo; cited from earlier work
# [6] = human, in vivo
# Protocol: as §1, §2
# [7] = Single-ascending dose clinical trial: safety, adverse events; format: in vivo, human
# Protocol: as §1
# [8] = system: rhinovirus; settings: mice sensitized with HDM, challenged with HDM and rhinovirus; cited from earlier work
# [9] = cited from earlier work
# [10] = in vivo; cited from earlier work
compound,measurement,setting,value
COC1CCN(c2ncc(OC/C(=C/F)CN)cn2)CC1 [Compound of Formula 5],liver fibrosis,[1],decreases
same,liver inflammation,[1],decreases
same,plasma methylamine,"[2]; across the dose range, single dose",Dose-dependent increases
same,duration of dose-dependent increases in plasma MMA,[2]; after single doses,up to 1 week
same,Maximum plasma MMA levels,[2]; single dose,increased
same,Median survival time,[3]; […],6 days
same,Survival proportion,[3]; […],0%
same,Prolonged survival time*,[3]; […],20%
same,exacerbation of viral replication or pathology,[3]; monotherapy or in combination with oseltamivir,did not appear to exacerbate
same,Prolonged survival time*,[3]; prophylactic,20%
same,inhibition of plasma SSAO activity at 4 hours post-dose,"[4]; all dose cohorts, single dose",near complete inhibition
same,duration of suppression of plasma SSAO activity after a single dose,[4]; single dose,up to 1 week
same,plasma amine oxidase activity,"[4]; single doses, all subjects",rapidly and potently decreased
same,duration of SSAO activity inhibition after a single dose,[4]; single oral dose 1 mg to 10 mg,up to seven days
NC/C(=C\F)COc1ccc(S(N)(=O)=O)cc1 [PXS-4681A],cytokine production,[5],reduced
same,effects relative to dexamethasone treatment,[5],comparable
same,leukocyte trafficking,[5],reduced
COC1CCN(c2ncc(OC/C(=C/F)CN)cn2)CC1 [toslyate salt of Formula 5],clearance from plasma,[6],rapidly cleared from plasma
same,plasma PK exposure dose proportionality,[6],greater than dose proportional
same,TEAE diagnosis and frequency: upper respiratory tract infection,[7]; All cohorts (n = 32),1 (3.1)
same,TEAE diagnosis and frequency: upper respiratory tract infection,"[7]; cohort 1, single oral dose 1 mg or placebo (n = 8)",0
same,TEAE diagnosis and frequency: upper respiratory tract infection,"[7]; cohort 2, single oral dose 3 mg or placebo (n = 8)",0
same,TEAE diagnosis and frequency: upper respiratory tract infection,"[7]; cohort 3, single oral dose 6 mg (n = 8)",0
same,TEAE diagnosis and frequency: upper respiratory tract infection,"[7]; cohort 4, single oral dose 10 mg or placebo (n = 8)",1 (12.5)
same,Subject incidence of TEAEs considered possibly treatment-related,"[7]; human, in vivo",1 (3.1)
same,Subject incidence of any TEAE,"[7]; human, in vivo",5 (15.6)
same,TEAE diagnosis and frequency: constipation,"[7]; human, in vivo",1 (3.1)
same,TEAE diagnosis and frequency: contact dermatitis,"[7]; human, in vivo",2 (6.3)
same,TEAE diagnosis and frequency: dysgeusia,"[7]; human, in vivo",1 (3.1)
same,TEAE diagnosis and frequency: headache,"[7]; human, in vivo",1 (3.1)
same,TEAE diagnosis and frequency: sore throat,"[7]; human, in vivo",1 (3.1)
same,TEAE diagnosis and frequency: oral herpes,"[7]; human, in vivo, po",1 (3.1)
"CCOC(=O)C1=C[C@@H](OC(CC)CC)[C@H](NC(C)=O)[C@@H](N)C1 [Oseltamivir, oseltamivir, reference compound]",Median survival time,[3]; […],undefined
same,Survival proportion,[3]; […],100%
same,Prolonged survival time*,[3]; […],undefined
same,Prolonged survival time*,[3]; prophylactic,undefined
CC(C)(C)NC(=O)c1ccc(OC/C(=C/F)CN)cc1.Cl [BI 1467335],airway hyperreactivity,[8],reduced
same,inflammatory cellular infiltrates,[8],reduced
same,cytokine-induced cell migration,[9]; by diminishing leukocyte rolling and adherence,reduced
same,LPS-induced neutrophil lung migration,[9]; in vivo,reduced
same,airway infiltration of inflammatory immune cells,[10],suppressed
same,lung function,[10],improved
same,pulmonary fibrosis,[10],reduced
